From patent US9376442B2, “Methylpyrrolopyrimidinecarboxamides” (Takeda GmbH, priority 2009, dated 2016)

Molecular target: T1, PDE5A1 (Homo sapiens, UniProt O76074)
T1 construct: from tissue; host or cells: human platelets from fresh donor blood (10,000 x g supernatant of sonicated lysate)
Experiment: Inhibition of type 5 phosphodiesterase (PDE5) activity, modified SPA test with human platelet lysate
Assay type: biochemical
Details: 0.5 μM cGMP, read-out: PDE5A1 inhibitory values [measured as −log IC50 (mol/l)] (converted)
Method in brief: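 Scintillation proximity assay with [3H]cGMP tracer at 0.5 μM total cGMP, stopped after 15 min with beads containing IBMX. PDE3 and PDE2 activities suppressed with motapizone (1 μM) and a PDE2 inhibitor (10 nM). Human platelet supernatant served as the enzyme, with compound preincubated 5 min at 37° C; IC50 values from concentration-effect curves.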

Structure (SMILES) | IC50 [nM]
CCC(=O)N1CC[C@@H](NC(=O)c2c(C)[nH]c3c(-c4cc(F)ccc4OCC4CC4)ncnc23)[C@H](O)C1 (relative stereo) [Example E50, 4-[2-(Cyclopropylmethoxy)-5-fluorophenyl]-N-[(3R*,4R*)-3-hydroxy-1-propanoylpiperidin-4-yl]-6-methyl-5H-pyrrolo[3,2-d]pyrimidine-7-carboxamide] | 1 to 10
CCC(=O)N1C[C@@H](O)[C@H](NC(=O)c2c(C)[nH]c3c(-c4ccc(F)cc4OCC4CC4)ncnc23)C1 (relative stereo) [Example E32, 4-[2-(Cyclopropylmethoxy)-4-fluorophenyl]-N-[(3R*,4R*)-4-hydroxy-1-propanoylpyrrolidin-3-yl]-6-methyl-5H-pyrrolo[3,2-d]pyrimidine-7-carboxamide] | 1 to 10
CCOC(=O)N1CCC(NC(=O)c2c(C)[nH]c3c(-c4cc(OC)c(F)cc4OCC4CC4)ncnc23)CC1 [Example E105, Ethyl 4-[({4-[2-(cyclopropylmethoxy)-4-fluoro-5-methoxyphenyl]-6-methyl-5H-pyrrolo[3,2-d]pyrimidin-7-yl}carbonyl)amino]piperidine-1-carboxylate] | < 1
Cc1[nH]c2c(-c3c(OCC4CC4)ccc4c3OCO4)ncnc2c1C(=O)NC1CCN(C(=O)CO)CC1 [Example F1, 4-[5-(Cyclopropylmethoxy)-1,3-benzodioxol-4-yl]-N-(1-glycoloylpiperidin-4-yl)-6-methyl-5H-pyrrolo[3,2-d]pyrimidine-7-carboxamide] | < 1
CCC(=O)N1C[C@@H](O)[C@H](NC(=O)c2c(C)[nH]c3c(-c4cc(OC)ccc4OCC4CC4)ncnc23)C1 (relative stereo) [Example E193, 4-[2-(Cyclopropylmethoxy)-5-methoxyphenyl]-N-[(3R*,4R*)-4-hydroxy-1-propionylpyrrolidin-3-yl]-6-methyl-5H-pyrrolo[3,2-d]pyrimidine-7-carboxamide] | 1 to 10
COc1cc(-c2ncnc3c(C(=O)N[C@H]4CC[C@@H](NC(=O)[C@H](C)O)CC4)c(C)[nH]c23)c(OCC2CC2)cc1F [Example F70, 4-[2-(Cyclopropylmethoxy)-4-fluoro-5-methoxyphenyl]-N-(cis-4-{[(2S)-2-hydroxypropanoyl]amino}cyclohexyl)-6-methyl-5H-pyrrolo[3,2-d]pyrimidine-7-carboxamide] | < 1
Cc1[nH]c2c(-c3cc(F)ccc3OCC3CC3)ncnc2c1C(=O)N[C@@H]1CCN(C(=O)CO)C1 [Example F28, 4-[2-(Cyclopropylmethoxy)-5-fluorophenyl]-N-[(3R)-1-(hydroxyacetyl)pyrrolidin-3-yl]-6-methyl-5H-pyrrolo[3,2-d]pyrimidine-7-carboxamide] | 1 to 10
CCC(=O)N1CC[C@@H](NC(=O)c2c(C)[nH]c3c(-c4cc(C)c(F)cc4OCC4CC4)ncnc23)[C@H](O)C1 (relative stereo) [Example E129, 4-[2-(cyclopropylmethoxy)-4-fluoro-5-methylphenyl]-N-[(3R*,4R*)-3-hydroxy-1-propanoylpiperidin-4-yl]-6-methyl-5H-pyrrolo[3,2-d]pyrimidine-7-carboxamide] | < 1
COCC(=O)N1CC[C@@H](NC(=O)c2c(C)[nH]c3c(-c4c(OCC5CC5)ccc5c4OCO5)ncnc23)C1 [Example E15, 4-[5-(Cyclopropylmethoxy)-1,3-benzodioxol-4-yl]-N-[(3R)-1-(methoxyacetyl)pyrrolidin-3-yl]-6-methyl-5H-pyrrolo[3,2-d]pyrimidine-7-carboxamide] | < 1
Cc1[nH]c2c(-c3ccc(F)cc3OCC3CC3)ncnc2c1C(=O)N[C@@H]1CCN(C(=O)CO)C1 [Example F17, 4-[2-(Cyclopropylmethoxy)-4-fluorophenyl]-N-[(3R)-1-(hydroxyacetyl)pyrrolidin-3-yl]-6-methyl-5H-pyrrolo[3,2-d]pyrimidine-7-carboxamide] | 1 to 10
CCC(=O)N1CCC(NC(=O)c2c(C)[nH]c3c(-c4cc(C(C)=O)ccc4OCC4CC4)ncnc23)CC1 [Example E164, 4-[5-Acetyl-2-(cyclopropylmethoxy)phenyl]-6-methyl-N-(1-propanoylpiperidin-4-yl)-5H-pyrrolo[3,2-d]pyrimidine-7-carboxamide] | < 1
Cc1[nH]c2c(-c3ccc(F)cc3OCC3CC3)ncnc2c1C(=O)N[C@H]1CC[C@@H](NC(=O)CO)CC1 [Example F15, 4-[2-(cyclopropylmethoxy)-4-fluorophenyl]-N-[cis-4-(glycoloylamino)cyclohexyl]-6-methyl-5H-pyrrolo[3,2-d]pyrimidine-7-carboxamide] | < 1
CCC(=O)N1CC[C@@H](NC(=O)c2c(C)[nH]c3c(-c4ccc(OC)cc4OCC4CC4)ncnc23)C1 [Example E61, 4-[2-(Cyclopropylmethoxy)-4-methoxyphenyl]-6-methyl-N-[(3R)-1-propionylpyrrolidin-3-yl]-5H-pyrrolo[3,2-d]pyrimidine-7-carboxamide] | < 1
CCC(=O)N[C@H]1CC[C@@H](NC(=O)c2c(C)[nH]c3c(-c4c(OCC5CC5)ccc5c4OCO5)ncnc23)CC1 [Example E10, 4-[5-(Cyclopropylmethoxy)-1,3-benzodioxol-4-yl]-6-methyl-N-[cis-4-(propionylamino)cyclohexyl]-5H-pyrrolo[3,2-d]pyrimidine-7-carboxamide] | < 1
COc1ccc(OCC2CC2)c(-c2ncnc3c(C(=O)NC4CN(C(=O)C(C)O)CC4O)c(C)[nH]c23)c1 (mixture of isomers) [Example F120, 4-[2-(Cyclopropylmethoxy)-5-methoxyphenyl]-N-{(31R*,4R*)-4-hydroxy-1-[(2S)-2-hydroxypropanoyl]pyrrolidin-3-yl}-6-methyl-5H-pyrrolo[3,2-d]pyrimidine-7-carboxamide] | 1 to 10
CCOc1ccc(C(F)(F)F)cc1-c1ncnc2c(C(=O)NC3CCN(C(=O)[C@H](C)O)CC3)c(C)[nH]c12 [Example F64, 4-[2-Ethoxy-5-(trifluoromethyl)phenyl]-N-{1-[(2S)-2-hydroxypropanoyl]piperidin-4-yl}-6-methyl-5H-pyrrolo[3,2-d]pyrimidine-7-carboxamide] | < 1
COCC(=O)N1CCC(NC(=O)c2c(C)[nH]c3c(-c4ccc(F)cc4OCC4CC4)ncnc23)CC1 [Example E21, 4-[2-(Cyclopropylmethoxy)-4-fluorophenyl]-N-[1-(methoxyacetyl)piperidin-4-yl]-6-methyl-5H-pyrrolo[3,2-d]pyrimidine-7-carboxamide] | < 1
CCC(=O)N[C@H]1CC[C@@H](NC(=O)c2c(C)[nH]c3c(-c4ccc(F)cc4OCC4CC4)ncnc23)CC1 [Example E26, 4-[2-(Cyclopropylmethoxy)-4-fluorophenyl]-6-methyl-N-[cis-4-(propionylamino)cyclohexyl]-5H-pyrrolo[3,2-d]pyrimidine-7-carboxamide] | < 1
COc1cc(OCC2CC2)c(-c2ncnc3c(C(=O)N[C@H]4CC[C@H](NC(=O)CO)CC4)c(C)[nH]c23)cc1F [Example F85, 4-[2-(Cyclopropylmethoxy)-5-fluoro-4-methoxyphenyl]-N-[trans-4-(glycoloylamino)cyclohexyl]-6-methyl-5H-pyrrolo[3,2-d]pyrimidine-7-carboxamide] | < 1
CCOC(=O)N1CC[C@@H](NC(=O)c2c(C)[nH]c3c(-c4cc(OC)c(F)cc4OCC4CC4)ncnc23)C1 [Example E182, Ethyl (3R)-3-[({4-[2-(cyclopropylmethoxy)-4-fluoro-5-methoxyphenyl]-6-methyl-5H-pyrrolo[3,2-d]pyrimidin-7-yl}carbonyl)amino]pyrrolidine-1-carboxylate] | < 1
CCC(=O)N1C[C@@H](O)[C@H](NC(=O)c2c(C)[nH]c3c(-c4c(OCC5CC5)ccc5c4OCO5)ncnc23)C1 (relative stereo) [Example E17, 4-[5-(Cyclopropylmethoxy)-1,3-benzodioxol-4-yl]-N-[(3R*,4R*)-4-hydroxy-1-propionylpyrrolidin-3-yl]-6-methyl-5H-pyrrolo[3,2-d]pyrimidine-7-carboxamide] | < 1
CCC(=O)N[C@H]1CC[C@H](NC(=O)c2c(C)[nH]c3c(-c4cc(OC)c(F)cc4OCC4CC4)ncnc23)CC1 [Example E107, 4-[2-(Cyclopropylmethoxy)-4-fluoro-5-methoxyphenyl]-6-methyl-N-[trans-4-(propionylamino)cyclohexyl]-5H-pyrrolo[3,2-d]pyrimidine-7-carboxamide] | < 1
CCC(=O)N1CC[C@@H](NC(=O)c2c(C)[nH]c3c(-c4cc(OC)ccc4OCC4CC4)ncnc23)[C@H](O)C1 (relative stereo) [Example E79, 4-[2-(Cyclopropylmethoxy)-5-methoxyphenyl]-N-[(3R*,4R*)-3-hydroxy-1-propanoylpiperidin-4-yl]-6-methyl-5H-pyrrolo[3,2-d]pyrimidine-7-carboxamide] | < 1
CCC(=O)N[C@H]1CC[C@H](NC(=O)c2c(C)[nH]c3c(-c4cc(F)c(OC)cc4OCC4CC4)ncnc23)CC1 [Example E136, 4-[2-(Cyclopropylmethoxy)-5-fluoro-4-methoxyphenyl]-6-methyl-N-[trans-4-(propionylamino)cyclohexyl]-5H-pyrrolo[3,2-d]pyrimidine-7-carboxamide] | < 1
CCC(=O)N1CCC(NC(=O)c2c(C)[nH]c3c(-c4cc(OC)c(F)cc4OCC4CC4)ncnc23)CC1 [Example E103, 4-[2-(cyclopropylmethoxy)-4-fluoro-5-methoxyphenyl]-6-methyl-N-(1-propionylpiperidin-4-yl)-5H-pyrrolo[3,2-d]pyrimidine-7-carboxamide] | < 1
CCOc1ccc(F)cc1-c1ncnc2c(C(=O)NC3CCN(C(C)=O)CC3)c(C)[nH]c12 [Example E52, N-(1-acetylpiperidin-4-yl)-4-(2-ethoxy-5-fluorophenyl)-6-methyl-5H-pyrrolo[3,2-d]pyrimidine-7-carboxamide] | 1 to 10
